Where two headings read alike, the source gives them in different places. Positions of bridges follow the written chain, without caps; N, C: chain ends. Residues, ends and D or L forms follow the SMILES beside them.
Legend:
AgrC-II [1] = target: T1, AgrC-II (Staphylococcus aureus, UniProt O33587); type: cell-based, S. aureus; settings: for IC50: read-out: AgrC-II IC50, fluorescence reporter strain
AgrC-IV [2] = target: T2, AgrC-IV (Staphylococcus aureus, UniProt Q309Z2); assay: Hemolysis assay, wild-type group-IV strain RN4850, rabbit red blood cells; settings: read-out: AgrC-IV IC50, hemolysis assay, 200 fM − 10 μM
AgrC-II [3] = target: T1, AgrC-II; assay: Hemolysis assay, wild-type group-II strain RN6923, rabbit red blood cells; settings: read-out: AgrC-II IC50, hemolysis assay, 200 fM − 10 μM
AgrC-III [4] = target: T3, AgrC-III (Staphylococcus aureus, UniProt O33590); type: cell-based, S. aureus; settings: read-out: AgrC-III IC50, fluorescence reporter strain
AgrC-III [5] = target: T3, AgrC-III; assay: Hemolysis assay, wild-type group-III strain MN8, rabbit red blood cells
AgrC-IV [6] = target: T2, AgrC-IV; type: cell-based, S. aureus; settings: read-out: AgrC-IV IC50, fluorescence reporter strain
AgrC-I [7] = target: T4, AgrC-I (Staphylococcus aureus, UniProt O07911); assay: Hemolysis assay, wild-type group-I strain RN6390B, rabbit red blood cells; settings: for IC50: read-out: AgrC-I IC50, hemolysis assay, 200 fM − 10 μM
AgrC-I [8] = target: T4, AgrC-I; type: cell-based, S. aureus; settings: read-out: AgrC-I IC50
[9] = AIPs tested over 200 fM − 10 μM or (b1) 2.5 pM − 10 μM, triplicate
[10] = read-out: AgrC-III IC50, 200 fM − 10 μM
[11] = second-generation analogues, 200 fM − 10 μM
[12] = selected second-generation analogues
[13] = second-generation analogues, fluorescence reporter strain, 200 fM − 10 μM
[14] = read-out: AgrC-III IC50, selected second-generation analogues, 200 fM − 10 μM

T1 sequence (O33587 1-437): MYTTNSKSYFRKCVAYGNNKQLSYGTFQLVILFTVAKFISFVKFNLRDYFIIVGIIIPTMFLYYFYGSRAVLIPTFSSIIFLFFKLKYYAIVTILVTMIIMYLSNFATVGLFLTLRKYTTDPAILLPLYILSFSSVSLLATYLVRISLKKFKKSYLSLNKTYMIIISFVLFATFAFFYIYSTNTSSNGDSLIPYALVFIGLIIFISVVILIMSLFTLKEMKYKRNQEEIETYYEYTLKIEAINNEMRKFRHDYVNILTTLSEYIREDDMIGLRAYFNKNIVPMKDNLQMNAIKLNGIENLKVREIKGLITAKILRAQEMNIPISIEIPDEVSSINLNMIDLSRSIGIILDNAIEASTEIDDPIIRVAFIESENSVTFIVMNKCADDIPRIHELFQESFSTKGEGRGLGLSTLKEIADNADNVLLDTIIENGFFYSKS
T3 sequence (O33590 1-425): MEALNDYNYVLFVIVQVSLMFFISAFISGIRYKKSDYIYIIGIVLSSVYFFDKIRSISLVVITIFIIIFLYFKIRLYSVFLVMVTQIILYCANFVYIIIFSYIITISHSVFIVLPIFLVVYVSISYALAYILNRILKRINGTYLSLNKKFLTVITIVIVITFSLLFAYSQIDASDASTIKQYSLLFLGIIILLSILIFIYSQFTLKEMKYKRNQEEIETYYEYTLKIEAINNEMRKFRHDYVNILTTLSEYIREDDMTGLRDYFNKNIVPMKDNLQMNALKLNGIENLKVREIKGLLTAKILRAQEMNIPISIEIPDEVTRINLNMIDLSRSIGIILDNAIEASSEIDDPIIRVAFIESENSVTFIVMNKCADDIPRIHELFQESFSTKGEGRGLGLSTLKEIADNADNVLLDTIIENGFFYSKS
T4 sequence (O07911 1-430): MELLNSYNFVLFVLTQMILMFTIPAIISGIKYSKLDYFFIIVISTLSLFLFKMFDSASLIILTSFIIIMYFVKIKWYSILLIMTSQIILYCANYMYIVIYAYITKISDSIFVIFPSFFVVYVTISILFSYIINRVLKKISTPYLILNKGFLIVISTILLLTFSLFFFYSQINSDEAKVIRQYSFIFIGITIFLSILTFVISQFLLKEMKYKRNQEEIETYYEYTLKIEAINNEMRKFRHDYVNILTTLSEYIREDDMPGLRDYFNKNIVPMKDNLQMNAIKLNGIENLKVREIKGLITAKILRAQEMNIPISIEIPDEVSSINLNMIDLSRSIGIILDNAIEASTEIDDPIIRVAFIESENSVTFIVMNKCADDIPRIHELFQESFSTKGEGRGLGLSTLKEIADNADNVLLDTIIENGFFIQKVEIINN
T2 sequence (Q309Z2 1-430): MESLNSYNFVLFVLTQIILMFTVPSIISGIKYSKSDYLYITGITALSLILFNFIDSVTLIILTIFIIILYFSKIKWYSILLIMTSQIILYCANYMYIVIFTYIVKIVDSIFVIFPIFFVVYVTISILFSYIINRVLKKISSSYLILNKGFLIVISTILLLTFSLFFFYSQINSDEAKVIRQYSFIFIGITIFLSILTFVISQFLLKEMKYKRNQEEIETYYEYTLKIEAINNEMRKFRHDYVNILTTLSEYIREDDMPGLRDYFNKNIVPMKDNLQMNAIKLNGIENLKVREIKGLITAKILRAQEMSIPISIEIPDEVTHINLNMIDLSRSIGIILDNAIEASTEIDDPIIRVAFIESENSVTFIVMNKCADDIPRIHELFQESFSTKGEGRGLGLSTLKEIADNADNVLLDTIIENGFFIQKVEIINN

SMILES | IC50 (AgrC-II [1]; [9]) [pM] | IC50 (AgrC-IV [2]) [pM] | IC50 (AgrC-II [3]) [pM] | IC50 (AgrC-III [4]; [9]) [pM] | IC50 (AgrC-III [5]; [10]) [pM] | IC50 (AgrC-IV [6]; [9]) [pM] | IC50 (AgrC-I [7]) [pM] | IC50 (AgrC-I [8]) [pM] | fold change against AgrC-II relative to AIP-III D4A (AgrC-II [1]; gfp reporter) [fold] | IC50 (AgrC-II [1]; [11]) [pM] | IC50 (AgrC-IV [6]; [11]) [pM] | IC50 (AgrC-IV [2]; [12]) [pM] | IC50 (AgrC-II [3]; [12]) [pM] | IC50 (AgrC-III [4]; [11]) [pM] | fold lower concentrations inhibiting hemolysis than AIP-III D4A (AgrC-I [7]; group-I) | IC50 (AgrC-I [7]; [12]) [pM] | IC50 (AgrC-I [8]; [13]) [pM] | IC50 (AgrC-III [5]; [14]) [pM]
CC[C@H](C)[C@@H]1NC(=O)[C@H](Cc2ccccc2)NC(=O)[C@H](CC(=O)O)NC(=O)[C@@H](NC(=O)[C@@H](NC(=O)[C@H](CO)NC(=O)[C@@H](N)Cc2ccc(O)cc2)[C@@H](C)O)CSC(=O)[C@H](CCSC)NC1=O [AIP-I, Y-S-T-(C-D-F-I-M), reference compound] (H-YSTCDFIM; thioester 4-C) | 8000 | 189000 | 3340 | 522 | 6120 | – | – | – | – | – | – | – | – | – | – | – | – | –
CC(C)C[C@@H]1NC(=O)[C@H](CO)NC(=O)[C@H](CO)NC(=O)[C@@H](NC(=O)[C@H](C)NC(=O)[C@H](CC(N)=O)NC(=O)[C@@H](NC(=O)CN)C(C)C)CSC(=O)[C@H](Cc2ccccc2)NC1=O [AIP-II, G-V-N-A-(C-S-S-L-F), reference compound] (H-GVNACSSLF; thioester 5-C) | – | 1190 | – | 532 | 3590 | 396 | 890 | 1620 | – | – | – | – | – | – | – | – | – | –
CC(C)C[C@@H]1NC(=O)[C@H](Cc2ccccc2)NC(=O)[C@H](C)NC(=O)[C@@H](NC(=O)[C@H](CC(N)=O)NC(=O)[C@H](C)N)CSC(=O)[C@H](CC(C)C)NC1=O [AIP-III I1A/D4A, A-N-(C-A-F-L-L)] (H-ANCAFLL; thioester 3-C) | – | – | – | – | – | – | – | – | < 5 | 2350 | 101 | 284 | 793 | 280 | eight | 10.3 | 328 | 551
CC(C)C[C@@H]1NC(=O)[C@H](Cc2ccccc2)NC(=O)[C@H](C)NC(=O)[C@@H](NC(=O)[C@H](C)NC(=O)[C@H](C)N)CSC(=O)[C@H](CC(C)C)NC1=O [AIP-III I1A/N2A/D4A, A-A-(C-A-F-L-L)] (H-AACAFLL; thioester 3-C) | – | – | – | – | – | – | – | – | – | 604 | 16.1 | 140 | 60.6 | 73.4 | – | 41.1 | 304 | 243
CC[C@H](C)[C@H](N)C(=O)N[C@@H](C)C(=O)N[C@H]1CSC(=O)[C@H](CC(C)C)NC(=O)[C@H](CC(C)C)NC(=O)[C@H](Cc2ccccc2)NC(=O)[C@H](C)NC1=O [AIP-III N2A/D4A, I-A-(C-A-F-L-L)] (H-IACAFLL; thioester 3-C) | – | – | – | – | – | – | – | – | – | 204 | 22.1 | 122 | 66.1 | 65.7 | – | 36.2 | 331 | 216
CC[C@H](C)[C@@H]1NC(=O)[C@H](Cc2ccccc2)NC(=O)[C@H](Cc2ccc(O)cc2)NC(=O)[C@@H](NC(=O)[C@@H](NC(=O)[C@H](CO)NC(=O)[C@@H](N)Cc2ccc(O)cc2)[C@@H](C)O)CSC(=O)[C@H](CCSC)NC1=O [AIP-IV, Y-S-T-(C-Y-F-I-M), reference compound] (H-YSTCYFIM; thioester 4-C) | 373 | – | 89.7 | 460 | 1490 | – | – | – | – | – | – | – | – | – | – | – | – | –
CC(=O)N[C@H]1CSC(=O)[C@H](CC(C)C)NC(=O)[C@H](CC(C)C)NC(=O)[C@H](Cc2c[nH]c3ccccc23)NC(=O)[C@H](C)NC1=O [Ac-(C-A-W-L-L)] (Ac-CAWLL; thioester 1-C) | – | – | – | – | – | – | – | – | – | 1900 | 36.3 | 194 | 126 | 509 | – | 468 | 909 | 1080
CC[C@H](C)[C@@H]1NC(=O)[C@H](Cc2ccccc2)NC(=O)[C@H](C)NC(=O)[C@@H](NC(C)=O)CSC(=O)[C@H](CCSC)NC1=O [tAIP-I D2A, Ac-(C-A-F-I-M), reference compound] (Ac-CAFIM; thioester 1-C) | – | 361 | 2500 | – | 853 | – | 1450 | – | – | – | – | – | – | – | – | – | – | –

— patent US20200140489A1 (priority 2013, published 2020)
